In paper PMC6986909 (Nature, 2020):

Key:
Format in all cases: biochemical
Crn1 Sso2081 = biological target: T1, Crn1 Sso2081 (Saccharolobus solfataricus, UniProt Q7LYJ6); assay: single-turnover cleavage of […]-labelled cA4, denaturing PAGE / TLC; details: 4 uM dimer, Tris-HCl pH 8.0, 100 mM NaCl, 1 mM EDTA, 50 °C; labelled compound
T1 sequence (Q7LYJ6 1-178): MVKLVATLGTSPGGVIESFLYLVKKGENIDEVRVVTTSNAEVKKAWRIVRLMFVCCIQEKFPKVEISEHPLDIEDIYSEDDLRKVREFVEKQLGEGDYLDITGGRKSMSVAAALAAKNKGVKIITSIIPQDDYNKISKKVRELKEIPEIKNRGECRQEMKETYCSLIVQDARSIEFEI

AcrIII-1 YddF = biological target: T2, AcrIII-1 YddF (Bacillus subtilis, UniProt P96643); assay: as above; details: 8 uM dimer, MES pH 6.0, 100 mM NaCl, 1 mM EDTA, 37 °C; labelled compound
T2 sequence (P96643 1-108): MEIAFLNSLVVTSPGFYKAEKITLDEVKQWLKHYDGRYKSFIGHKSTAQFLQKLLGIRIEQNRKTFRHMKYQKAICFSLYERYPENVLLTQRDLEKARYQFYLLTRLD

AcrIII-1 SIRV1 gp29 = biological target: T3, AcrIII-1 SIRV1 gp29 (Sulfolobus islandicus rod-shaped virus 1, UniProt Q8QL27); assay: degradation of unlabelled cA6, TLC under […] nm UV; details: 40 uM dimer, 450 uM cA6, MES pH 5.5, 70 °C; weak substrate, very slow
T3 sequence (Q8QL27 1-114): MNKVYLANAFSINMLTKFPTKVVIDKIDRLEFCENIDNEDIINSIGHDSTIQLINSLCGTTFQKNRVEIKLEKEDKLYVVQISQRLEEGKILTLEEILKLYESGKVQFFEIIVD

| Compound | single-turnover cleavage of 32P-labelled cA4, denaturing PAGE / TLC (Crn1 Sso2081) | single-turnover cleavage of 32P-labelled cA4, denaturing PAGE / TLC (AcrIII-1 YddF) | degradation of unlabelled cA6, TLC under 254 nm UV (AcrIII-1 SIRV1 gp29) |
| --- | --- | --- | --- |
| Nc1ncnc2c1ncn2[C@@H]1O[C@@H]2COP(=O)(O)O[C@H]3[C@@H](O)[C@H](n4cnc5c(N)ncnc54)O[C@@H]3COP(=O)(O)O[C@H]3[C@@H](O)[C@H](n4cnc5c(N)ncnc54)O[C@@H]3COP(=O)(O)O[C@H]3[C@@H](O)[C@H](n4cnc5c(N)ncnc54)O[C@@H]3COP(=O)(O)O[C@H]2[C@H]1O [cA4] | Kinetic comparison of cA4 degradation by the AcrIII-1 enzymes SIRV1 gp29 and YddF | Both proteins possess a potent ring nuclease activity, rapidly degrading cA4 |  |
| Nc1ncnc2c1ncn2[C@@H]1O[C@@H]2COP(=O)(O)O[C@H]3[C@@H](O)[C@H](n4cnc5c(N)ncnc54)O[C@@H]3COP(=O)(O)O[C@H]3[C@@H](O)[C@H](n4cnc5c(N)ncnc54)O[C@@H]3COP(=O)(O)O[C@H]3[C@@H](O)[C@H](n4cnc5c(N)ncnc54)O[C@@H]3COP(=O)(O)O[C@H]3[C@@H](O)[C@H](n4cnc5c(N)ncnc54)O[C@@H]3COP(=O)(O)O[C@H]3[C@@H](O)[C@H](n4cnc5c(N)ncnc54)O[C@@H]3COP(=O)(O)O[C@H]2[C@H]1O [cA6] |  |  | strong preference for cA4 over cA6, with the latter degraded very slowly by comparison |
